Laboratory results: ChEMBL document CHEMBL5465560, “Selectivity Literature for EUbOPEN Chemogenomic Library” (2024)

Experiments:
[1] = biological target: Histone-lysine N-methyltransferase 2C (Homo sapiens) (UniProt Q8NEZ4); conditions: at 1 µM
[2] = biological target: Histone acetyltransferase KAT2B (Homo sapiens, UniProt Q92831); assay: Selectivity interaction (Human bromodomain panel (DSF assay)) EUB0000233b KAT2B
[3] = biological target: Calcium/calmodulin-dependent protein kinase type II subunit delta (Homo sapiens) (UniProt Q13557); assay: Selectivity interaction (Kinase panel (DSF assay)) EUB0001559a CAMK2D
[4] = biological target: Activin receptor type-1-like (Homo sapiens) (UniProt P37023); assay: Selectivity interaction (KinomeScan (DiscoverX)) EUB0000092b ACVRL1; conditions: at 10 µM
[5] = biological target: Protein-tyrosine kinase 6 (Homo sapiens, UniProt Q13882); assay: Selectivity interaction (KinomeScan (DiscoverX)) EUB0000092b PTK6; conditions: at 10 µM
[6] = biological target: T1, Mitogen-activated protein kinase kinase kinase 7 (Homo sapiens) (UniProt O43318); conditions: at 10 µM
T1 sequence (whole entry): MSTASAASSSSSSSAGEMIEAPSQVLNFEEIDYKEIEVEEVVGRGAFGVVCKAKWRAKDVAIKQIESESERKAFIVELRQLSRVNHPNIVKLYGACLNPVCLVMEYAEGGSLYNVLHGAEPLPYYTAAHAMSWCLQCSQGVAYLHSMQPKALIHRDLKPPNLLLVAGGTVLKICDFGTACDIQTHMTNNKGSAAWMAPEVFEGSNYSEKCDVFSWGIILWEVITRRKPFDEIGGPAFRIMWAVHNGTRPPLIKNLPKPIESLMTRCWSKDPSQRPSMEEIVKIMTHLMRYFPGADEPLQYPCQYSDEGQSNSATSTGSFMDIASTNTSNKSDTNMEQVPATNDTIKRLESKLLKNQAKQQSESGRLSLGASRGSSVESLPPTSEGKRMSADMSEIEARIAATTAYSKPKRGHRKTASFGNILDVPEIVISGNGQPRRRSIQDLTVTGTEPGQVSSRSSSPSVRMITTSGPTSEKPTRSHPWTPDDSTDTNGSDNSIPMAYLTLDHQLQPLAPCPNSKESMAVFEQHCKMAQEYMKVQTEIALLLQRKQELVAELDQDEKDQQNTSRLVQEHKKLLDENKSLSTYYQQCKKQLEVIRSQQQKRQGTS

[7] = biological target: Serine/threonine-protein kinase MARK2 (Homo sapiens) (UniProt Q7KZI7); conditions: at 10 µM
[8] = biological target: T2, Serine/threonine-protein kinase TAO1 (Homo sapiens) (UniProt Q7L7X3); conditions: at 10 µM
T2 sequence (whole entry): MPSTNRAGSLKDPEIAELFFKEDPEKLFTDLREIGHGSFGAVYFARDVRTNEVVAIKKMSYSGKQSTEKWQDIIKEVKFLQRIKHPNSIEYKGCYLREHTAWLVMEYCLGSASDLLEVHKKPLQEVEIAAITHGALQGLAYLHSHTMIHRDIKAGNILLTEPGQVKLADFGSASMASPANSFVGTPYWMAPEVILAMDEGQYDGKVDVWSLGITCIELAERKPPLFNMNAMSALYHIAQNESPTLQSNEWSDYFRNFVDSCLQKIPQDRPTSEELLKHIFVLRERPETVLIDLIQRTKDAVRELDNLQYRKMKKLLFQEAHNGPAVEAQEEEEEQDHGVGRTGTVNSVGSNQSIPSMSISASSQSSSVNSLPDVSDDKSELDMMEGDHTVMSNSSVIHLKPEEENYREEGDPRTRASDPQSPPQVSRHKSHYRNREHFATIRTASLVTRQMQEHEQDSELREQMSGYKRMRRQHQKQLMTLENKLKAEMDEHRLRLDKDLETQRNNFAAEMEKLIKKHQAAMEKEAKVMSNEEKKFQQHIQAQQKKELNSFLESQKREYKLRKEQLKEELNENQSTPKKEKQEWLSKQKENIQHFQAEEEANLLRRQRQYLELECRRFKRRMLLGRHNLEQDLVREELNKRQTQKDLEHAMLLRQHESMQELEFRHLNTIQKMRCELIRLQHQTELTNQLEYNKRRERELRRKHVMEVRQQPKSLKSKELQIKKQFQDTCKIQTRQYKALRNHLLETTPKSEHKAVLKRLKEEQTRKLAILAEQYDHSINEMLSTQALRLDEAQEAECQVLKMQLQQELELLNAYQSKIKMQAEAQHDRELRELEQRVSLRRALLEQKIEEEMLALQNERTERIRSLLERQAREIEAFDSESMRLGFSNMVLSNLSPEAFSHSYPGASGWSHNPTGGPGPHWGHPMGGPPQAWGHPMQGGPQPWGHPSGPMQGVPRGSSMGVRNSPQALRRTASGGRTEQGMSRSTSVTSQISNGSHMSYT

[9] = biological target: Tyrosine-protein kinase HCK (Homo sapiens) (UniProt P08631); assay: Selectivity interaction (KinomeScan (DiscoverX)) EUB0000655a HCK; conditions: at 10 µM
[10] = biological target: Ribosomal protein S6 kinase alpha-1 (Homo sapiens, UniProt Q15418); assay: Selectivity interaction (KinomeScan (DiscoverX)) EUB0000655a RPS6KA1; conditions: at 10 µM
[11] = biological target: Fibroblast growth factor receptor 4 (Homo sapiens, UniProt P22455); assay: Selectivity interaction (KinomeScan (DiscoverX)) EUB0000655a FGFR4; conditions: at 10 µM
[12] = biological target: 5-hydroxytryptamine receptor 1B (Homo sapiens) (UniProt P28222); assay: Selectivity interaction (Panel of kinases, GPCRs, ion channels and transporters (enzymatic assay)) EUB0000266bCl HTR1B
[13] = biological target: Hepatocyte growth factor-like protein (Homo sapiens) (UniProt P26927); assay: Selectivity interaction (KinomeScan (DiscoverX)) EUB0000607a MST1; conditions: at 10 µM

Sequence of Calcium/calmodulin-dependent protein kinase type II subunit delta (Homo sapiens) (Q13557 whole entry): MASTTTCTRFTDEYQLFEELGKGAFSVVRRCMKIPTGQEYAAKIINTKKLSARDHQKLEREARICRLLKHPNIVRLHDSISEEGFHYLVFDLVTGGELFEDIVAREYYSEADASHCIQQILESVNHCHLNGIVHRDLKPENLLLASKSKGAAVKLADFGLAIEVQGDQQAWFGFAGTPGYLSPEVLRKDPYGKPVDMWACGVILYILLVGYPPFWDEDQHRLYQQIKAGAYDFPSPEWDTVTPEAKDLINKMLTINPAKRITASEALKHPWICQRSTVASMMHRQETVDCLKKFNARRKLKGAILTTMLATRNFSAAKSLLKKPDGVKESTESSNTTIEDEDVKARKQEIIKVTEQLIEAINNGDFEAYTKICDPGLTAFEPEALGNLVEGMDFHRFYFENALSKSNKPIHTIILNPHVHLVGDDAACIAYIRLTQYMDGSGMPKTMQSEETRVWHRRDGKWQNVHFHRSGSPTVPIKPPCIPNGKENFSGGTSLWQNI
Sequence of Fibroblast growth factor receptor 4 (P22455 22-802 limits assumed): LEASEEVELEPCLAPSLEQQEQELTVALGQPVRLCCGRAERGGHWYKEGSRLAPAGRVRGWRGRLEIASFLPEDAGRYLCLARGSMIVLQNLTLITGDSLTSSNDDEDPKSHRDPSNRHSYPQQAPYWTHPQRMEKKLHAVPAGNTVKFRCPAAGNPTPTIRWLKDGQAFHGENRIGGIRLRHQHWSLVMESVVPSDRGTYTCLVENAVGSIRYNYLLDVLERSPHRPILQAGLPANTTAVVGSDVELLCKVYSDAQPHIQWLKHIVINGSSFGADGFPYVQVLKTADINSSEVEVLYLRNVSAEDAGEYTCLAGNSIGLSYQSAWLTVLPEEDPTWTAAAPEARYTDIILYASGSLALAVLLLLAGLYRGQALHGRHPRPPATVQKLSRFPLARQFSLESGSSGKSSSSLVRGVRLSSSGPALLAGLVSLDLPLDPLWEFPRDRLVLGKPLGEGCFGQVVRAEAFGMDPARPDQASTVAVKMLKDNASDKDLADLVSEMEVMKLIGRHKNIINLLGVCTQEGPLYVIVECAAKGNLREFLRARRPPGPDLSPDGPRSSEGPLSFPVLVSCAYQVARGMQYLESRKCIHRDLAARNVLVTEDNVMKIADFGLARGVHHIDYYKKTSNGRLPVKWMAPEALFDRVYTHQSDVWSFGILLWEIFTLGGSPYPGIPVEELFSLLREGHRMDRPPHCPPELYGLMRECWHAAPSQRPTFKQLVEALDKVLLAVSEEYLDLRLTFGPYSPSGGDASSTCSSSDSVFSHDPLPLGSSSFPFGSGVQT
Sequence of Activin receptor type-1-like (Homo sapiens) (P37023 whole entry): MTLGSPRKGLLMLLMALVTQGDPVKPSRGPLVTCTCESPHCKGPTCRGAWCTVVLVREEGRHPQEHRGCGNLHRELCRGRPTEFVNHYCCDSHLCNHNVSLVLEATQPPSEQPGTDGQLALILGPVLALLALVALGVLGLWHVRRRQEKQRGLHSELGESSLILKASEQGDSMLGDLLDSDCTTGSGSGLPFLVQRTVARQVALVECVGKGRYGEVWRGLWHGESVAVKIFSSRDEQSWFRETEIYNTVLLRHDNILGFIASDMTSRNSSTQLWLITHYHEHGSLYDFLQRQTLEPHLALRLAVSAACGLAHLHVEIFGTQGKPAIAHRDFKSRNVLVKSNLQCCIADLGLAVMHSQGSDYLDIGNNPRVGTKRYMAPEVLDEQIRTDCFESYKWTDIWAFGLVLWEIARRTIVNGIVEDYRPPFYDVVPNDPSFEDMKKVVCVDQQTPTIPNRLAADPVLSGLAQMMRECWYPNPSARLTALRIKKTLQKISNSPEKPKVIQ
Sequence of Serine/threonine-protein kinase MARK2 (Homo sapiens) (Q7KZI7 whole entry): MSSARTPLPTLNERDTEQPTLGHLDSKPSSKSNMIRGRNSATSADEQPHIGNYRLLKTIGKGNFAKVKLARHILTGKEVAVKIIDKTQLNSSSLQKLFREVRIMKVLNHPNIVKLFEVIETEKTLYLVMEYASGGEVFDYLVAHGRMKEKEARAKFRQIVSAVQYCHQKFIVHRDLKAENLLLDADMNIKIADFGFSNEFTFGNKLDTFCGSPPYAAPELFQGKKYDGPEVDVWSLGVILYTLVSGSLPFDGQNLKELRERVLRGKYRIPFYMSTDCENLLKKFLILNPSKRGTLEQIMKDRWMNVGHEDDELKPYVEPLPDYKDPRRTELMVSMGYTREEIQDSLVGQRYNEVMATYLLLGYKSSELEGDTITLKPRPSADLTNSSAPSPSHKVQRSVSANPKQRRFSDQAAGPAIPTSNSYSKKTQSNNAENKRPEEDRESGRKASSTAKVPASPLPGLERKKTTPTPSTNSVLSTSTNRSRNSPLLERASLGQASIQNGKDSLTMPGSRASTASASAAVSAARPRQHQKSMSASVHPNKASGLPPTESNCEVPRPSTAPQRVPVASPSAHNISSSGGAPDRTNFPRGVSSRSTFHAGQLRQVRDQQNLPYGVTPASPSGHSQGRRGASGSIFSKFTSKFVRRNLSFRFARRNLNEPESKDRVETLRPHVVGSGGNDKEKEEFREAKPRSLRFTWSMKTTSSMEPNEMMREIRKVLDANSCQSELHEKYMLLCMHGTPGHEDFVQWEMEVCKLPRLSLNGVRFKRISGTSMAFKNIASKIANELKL
Sequence of 5-hydroxytryptamine receptor 1B (Homo sapiens) (P28222 whole entry): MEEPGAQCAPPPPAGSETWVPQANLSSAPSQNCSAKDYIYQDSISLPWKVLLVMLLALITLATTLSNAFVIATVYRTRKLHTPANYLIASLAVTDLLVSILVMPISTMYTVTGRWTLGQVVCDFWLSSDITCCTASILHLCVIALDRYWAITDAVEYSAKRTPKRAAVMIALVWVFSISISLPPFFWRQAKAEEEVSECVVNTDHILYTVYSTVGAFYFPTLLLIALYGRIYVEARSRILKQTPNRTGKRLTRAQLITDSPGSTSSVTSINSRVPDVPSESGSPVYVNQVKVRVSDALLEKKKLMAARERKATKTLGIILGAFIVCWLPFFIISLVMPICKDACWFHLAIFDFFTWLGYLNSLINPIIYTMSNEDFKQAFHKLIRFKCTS
Sequence of Ribosomal protein S6 kinase alpha-1 (Q15418 whole entry): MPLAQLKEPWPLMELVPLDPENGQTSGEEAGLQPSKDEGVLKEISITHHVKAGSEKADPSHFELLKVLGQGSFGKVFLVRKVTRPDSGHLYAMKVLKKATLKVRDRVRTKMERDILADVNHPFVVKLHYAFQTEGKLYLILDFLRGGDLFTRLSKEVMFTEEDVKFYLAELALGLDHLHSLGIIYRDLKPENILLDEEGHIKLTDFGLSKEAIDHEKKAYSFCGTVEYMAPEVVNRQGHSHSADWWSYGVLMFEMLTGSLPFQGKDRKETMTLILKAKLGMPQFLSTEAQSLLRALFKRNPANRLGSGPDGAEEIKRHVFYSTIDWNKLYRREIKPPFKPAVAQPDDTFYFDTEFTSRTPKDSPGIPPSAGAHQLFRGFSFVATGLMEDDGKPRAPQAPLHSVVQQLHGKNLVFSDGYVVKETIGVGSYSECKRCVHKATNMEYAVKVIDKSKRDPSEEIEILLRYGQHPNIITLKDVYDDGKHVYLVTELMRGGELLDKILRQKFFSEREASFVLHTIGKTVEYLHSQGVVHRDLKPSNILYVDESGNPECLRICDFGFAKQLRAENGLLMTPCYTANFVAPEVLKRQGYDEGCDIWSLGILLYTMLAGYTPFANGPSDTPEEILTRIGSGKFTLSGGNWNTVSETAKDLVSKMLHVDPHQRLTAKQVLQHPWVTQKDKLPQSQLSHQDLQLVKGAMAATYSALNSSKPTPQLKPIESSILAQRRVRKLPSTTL
Sequence of Tyrosine-protein kinase HCK (Homo sapiens) (P08631 2-526 limits assumed): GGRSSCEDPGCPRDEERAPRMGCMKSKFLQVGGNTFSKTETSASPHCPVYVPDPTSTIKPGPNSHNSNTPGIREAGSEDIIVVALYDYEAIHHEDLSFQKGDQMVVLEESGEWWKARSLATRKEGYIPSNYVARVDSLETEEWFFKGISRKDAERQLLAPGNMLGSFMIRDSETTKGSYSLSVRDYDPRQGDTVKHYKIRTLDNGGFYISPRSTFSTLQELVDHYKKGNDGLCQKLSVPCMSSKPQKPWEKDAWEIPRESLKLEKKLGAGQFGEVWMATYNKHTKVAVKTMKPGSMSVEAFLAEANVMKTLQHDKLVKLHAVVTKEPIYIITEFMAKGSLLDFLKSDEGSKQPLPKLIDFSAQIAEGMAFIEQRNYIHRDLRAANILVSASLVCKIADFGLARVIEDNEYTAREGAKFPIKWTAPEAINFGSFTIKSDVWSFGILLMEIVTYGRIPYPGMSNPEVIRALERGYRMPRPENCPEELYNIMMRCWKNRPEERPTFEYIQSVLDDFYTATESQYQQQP
Sequence of Protein-tyrosine kinase 6 (Q13882 whole entry, looked up): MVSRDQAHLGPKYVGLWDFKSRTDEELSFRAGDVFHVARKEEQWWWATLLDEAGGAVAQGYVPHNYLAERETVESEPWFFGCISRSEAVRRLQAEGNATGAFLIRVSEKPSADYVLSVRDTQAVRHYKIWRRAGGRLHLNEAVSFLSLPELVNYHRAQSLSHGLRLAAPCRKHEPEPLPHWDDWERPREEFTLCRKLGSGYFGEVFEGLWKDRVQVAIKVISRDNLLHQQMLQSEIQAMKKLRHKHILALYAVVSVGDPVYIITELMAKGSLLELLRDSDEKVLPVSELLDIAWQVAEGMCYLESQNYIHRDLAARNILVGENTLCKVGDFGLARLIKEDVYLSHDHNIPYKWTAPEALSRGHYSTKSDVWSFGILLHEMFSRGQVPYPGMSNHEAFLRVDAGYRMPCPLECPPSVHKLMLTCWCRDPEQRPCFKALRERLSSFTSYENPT

`CNCCN1CCC(c2cc(CN(C)C(=O)c3cccc(Oc4ccccc4)c3)ccn2)CC1` was tested, and the % activity [1] was greater than 90%.

Compound `CN(C)CCCOc1ccc(-c2cc(NCCCn3cccn3)nc(S(C)(=O)=O)n2)cc1` has a dTM [2] of less than 2 K.

For `CN(C(=O)c1cnn2cccnc12)c1cc2c(cc1N1CCOCC1)C(=O)N(C[C@@H](F)C(C)(C)O)C2`, the dTM [3] was 0 K.

`CCC(=O)N1CCN(c2ccc(-n3c(=O)ccc4cnc5ccc(-c6cnc7ccccc7c6)cc5c43)cc2C(F)(F)F)CC1` gave a % of control [4] of 83% and a % of control [5] of 51%.

`Cc1cc([C@@H](C)Nc2ccccc2C(=O)O)c2nc(N3CCOCC3)cc(=O)n2c1` [AZD-6482] showed a % of control [6] of 89%, a % of control [7] of 90% and a % of control [8] of 59%.

`CN(C)CCOc1ccc(-c2nc(-c3ccncc3)c(-c3ccc4c(c3)CC/C4=N\O)[nH]2)cc1` gave a % of control [9] of 84%, a % of control [10] of 91% and a % of control [11] of 100%.

In the case of `CCn1c(-c2nc3cc(C(=O)N4CCCC(N)C4)ccc3n2C)cc2ccccc21` (stereo not drawn), the pXC50 [12] is reported as less than 4.5 M.

With `CNC(=O)Nc1ccc(-c2nc(N3CC4CCC(C3)O4)c3cnn(C4CCC5(CC4)OCCO5)c3n2)cc1` the % of control [13] was 100%.
